We go through 2 compounds from patent US20090130064A1, “DIFFERENTIATION OF STEM CELLS AND STABILIZATION OF PHENOTYPICAL PROPERTIES OF PRIMARY CELLS” (priority 2004, published 2009).

Data set [1] is described as follows: Biotransformation by human liver microsomes. The conditions noted are these: 140 μM TSA, 150 min. It is filed as in vitro ADME. The protocol:
Human liver specimens (n=3) were acquired from organ donors at the Academic Hospital of the VUB in accordance with the regulations of the local Medical Ethical Committee and immediately frozen in liquid nitrogen. While human liver microsomes were prepared from frozen liver tissue, rat livers (n=3) were freshly isolated for immediate microsome preparation. Microsomal 7-ethoxyresorufin-O-deethylase (EROD) [31]was used as a marker enzyme to evaluate the microsomal biotransformation activity before and after storage. Incubations were carried out in a 100 mM sodium potassium phosphate buffer pH 7.4 in the presence of a NADPH-generating system (0.5 mM NADP^+, 10 mM glucose 6-phosphate, 2 U/ml glucose 6-phosphate dehydrogenase and 0.6 mM MgCl2). Microsomes (0.0-2.0 mg microsomal protein/ml) were incubated with 140 μM substrate at 37° C. for 150 min. Boiled microsomes ([…]) served as a control. Biotransformation reactions were initiated by addition of substrate and, at selected time intervals, terminated by dilution with ice-cold acetonitrile (1:2.5).
After centrifugation (2000 g, 45 min, 4° C.) of the diluted microsomal samples, the clear supernatant was injected onto a HPLC column. Samples from incubations with hepatocytes were thawed on ice and centrifugated (120 g, 2 min). […]

Data set [2] deals with primary rat hepatocytes. The data set can be described thus: DNA synthesis ([methyl-3H]-thymidine) in EGF-stimulated primary rat hepatocytes. It counts as cell-based. The text has this:
Male outbred Sprague-Dawley rats (200-300 g, Iffa Credo, Brussels, Belgium) were kept under controlled environmental conditions (12-hr light-dark cycle) and fed a standard diet (Animafabo A04, water ad libitum). Hepatocytes were isolated by a two-step collagenase perfusion as described (De Smet et al. In ‘Methods in Molecular Biology, Vol. 107: Cytochrome P450 Protocols’, Philips I R and Shephard E A, eds., pp 295-301, Humana Press, Totowa, 1998). Cell liability was >90% as determined by trypan blue exclusion. Cells (0.4×10^5 cells/cm^2) were plated in MEM/M199 (3:1), containing BSA (1 mg/ml), bovine insulin (10 μg/ml), L-glutamine (2 mM), FBS (10% v/v) and antibiotics (7.3 IU/ml benzyl penicillin, 50 μg/ml streptomycin sulphate, 50 μg/ml kanamycin monosulphstep and 10 μg/ml sodium ampicillin). Four hours after plating, serum-containing medium was removed and fresh serum-free medium was added to the cultures. Culture medium was refreshed daily. EGF (50 ng/ml) was added 4 hours after plating. A 100 mM stock solution of 4-Me2N-BAVAH was prepared in ethanol.
Hepatocytes were cultured in triplicate in 35 mm tissue culture dishes (Beckton Dickinson, UK). Cells were incubated with [methyl-^3H]-thymidine (25 Ci/mmol (2 μCi/ml)) for 24 hours prior to harvesting. Its incorporation was measured by liquid scintillation counting (Wallac 1410; counting efficiency: 67.5%) after trichloroacetic acid precipitation of the DNA. Results are expressed as counts per minute (cpm) per μg of total cellular proteins. Protein concentration of the samples was determined according to the Bradford procedure (Bradford. Anal Biochem 72: 248-254, 1976), using BSA as a standard.

The next data set relates to HDAC. The conditions noted are these: cited from earlier work.
Data set [3] has as its system primary rat hepatocytes. Nature of the data set: FACS analysis of cell cycle distribution of primary rat hepatocytes. The conditions noted are these: 50 μM + EGF; 72 hours. It is filed as cell-based. The protocol:
Ploidy of hepatocyte nuclei was measured by FACS analysis. After hypotonic swelling of the cells with 0.1% sodium citrate, cellular DNA was stained with propidium iodide (50 μg/ml) and analyzed on a FACStar^Plus (Beckton Dickinson Biosciences, San José, Calif., USA).

Another data set has as its system rat hepatocytes. Nature of the data set: Lactate dehydrogenase index and morphology in cultured rat hepatocytes. It counts as cell-based. The conditions noted are these: 50 μM. The protocol: The % LDH leakage of the cells was calculated as the result of the ratio: [100×LDH activity in supernatant]/[LDH activity in (supernatant+cells)]
Medium samples were collected at 72 hours of culture and analyzed for their albumin content by an enzyme-linked immunosorbent assay (ELISA) as described (Dunn et al. Biotechnol Prog 7: 237-245, 1991) Cell morphology was analyzed by light microscopy (×100). Pictures were taken using an Optiphot Nikon Phase Contrast microscope (Cetec, Brussels, Belgium).

The structures appear in SMILES notation.

As for `CC(C=CC(=O)NO)=CC(C)C(=O)c1ccc(N(C)C)cc1` (stereo not drawn) [TSA], the “biotransformation in microsome suspensions” value in data set [1] was “slow and incomplete biotransformation”.

With `CN(C)c1ccc(C(=O)NCCCCC(=O)NO)cc1` [4-Me2N-BAVAH, 5-(4-dimethylaminobenzoyl)-aminovaleric acid hydroxamide], in the data set on primary rat hepatocytes [2] (50 μM added at 24 hours or 48 hours), the “inhibitory effect on DNA replication” value is given as “less or no inhibitory effect”. In the data set with primary rat hepatocytes [2] (50 μM from time of plating), the “EGF-induced DNA synthesis” value is given as “totally suppressed”. For the same compound, the DNA synthesis entry in the data set on primary rat hepatocytes [2] (50 μM maintained until 48 hours) is recorded as “no DNA synthesis occurred”. The “reduction in 3H-thymidine incorporation compared to untreated control cultures” value with primary rat hepatocytes [2] (50 μM, withdrawal at 24 hours of culture, measured at 72 hours) was determined as 50.9±1.6%. In addition, the “HDAC inhibition, concentration range” value in the data set with HDAC is reported as “micromolar range”. In the data set with primary rat hepatocytes [3], the “number of cells in G2/M” value is reported as “significantly lower” and the “proportion of cells in G0/G1” value is reported as “significantly higher proportion”. The “cytotoxicity (LDH leakage, morphology)” value with rat hepatocytes is on record as “not due to cytotoxicity”.
